Patent US20240245691A1 (Sitryx Therapeutics Limited, priority 2021, published 2024)
pEC50, pIC50: −log10 of the molar value. Like-named read-outs stand apart in the source and are kept apart here.

Tests used:
[1] = tested on: cryo-preserved hepatocytes; test: Hepatocyte stability assay, mouse; type: in vitro ADME; settings: mouse, hepatocytes
How it was run: (§1)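 Cryopreserved hepatocytes at 0.5×10^6 cells/mL in Leibovitz buffer, 37 °C, with 10 μM compound (0.1% DMSO), duplicate. Samples at 0-60 min, acetonitrile quench, LC-MS/MS; intrinsic clearance and half-life from ln % remaining versus time, with buffer-only incubations as control.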

[2] = Hepatocyte stability assay, mouse; type: in vitro ADME; settings: mouse, hepatocytes, T½
How it was run: as §1

[3] = tested on: cryo-preserved hepatocytes; test: Hepatocyte stability assay, human; type: in vitro ADME; settings: human, hepatocytes
How it was run: as §1

[4] = Hepatocyte stability assay, human; type: in vitro ADME; settings: human, hepatocytes, T½
How it was run: as §1

[5] = tested on: IL-6; test: THP-1 AlphaLISA IL-6 cytokine assay (differentiated THP-1 cells); type: cell-based; settings: Homo sapiens
How it was run: (§2)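 PMA-differentiated THP-1 cells were preincubated 30 min with compound, stimulated with LPS for 24 h, then nigericin for 1 h, all at 37 °C. Supernatant IL-1β and IL-6 were quantified by AlphaLISA. % inhibition is normalised to +LPS and −LPS controls per cytokine.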

[6] = tested on: NRF2 (nuclear factor erythroid 2-related factor 2); test: NRF2 +/-GSH activation assay (DiscoverX PathHunter NRF2 translocation kit, U2OS cells); type: cell-based; settings: Homo sapiens
[7] = tested on: IL-1β; test: THP-1 AlphaLISA IL-1β cytokine assay (differentiated THP-1 cells); type: cell-based; settings: Homo sapiens
How it was run: as §2

[8] = THP-1, differentiated THP-1 cells, LPS 24 hr then Nigericin 1 hour, read-out: IL-6 (IC50)
[9] = U2OS, +GSH, normalised to dimethyl fumarate high control, read-out: NRF2 activation Emax, +GSH
[10] = U2OS, −GSH, normalised to dimethyl fumarate high control, read-out: NRF2 activation Emax, −GSH
[11] = +GSH, U2OS PathHunter cells, 6 hours, read-out: NRF2 activation EC50, +GSH
[12] = −GSH, U2OS PathHunter cells, 6 hours, read-out: NRF2 activation EC50, −GSH
[13] = THP-1, differentiated THP-1 cells, LPS 24 hr then Nigericin 1 hour, read-out: IL-1β (IC50)
[14] = U2OS, 6 h, read-out: NRF2 activation EC50, +GSH
[15] = U2OS, 6 h, read-out: NRF2 activation EC50, −GSH
[16] = U2OS, read-out: NRF2 activation Emax, +GSH
[17] = U2OS, read-out: NRF2 activation Emax, −GSH

Structure (SMILES)	Clint [1]	half-life at 10 μM [2]	Clint [3]	half-life at 10 μM [4]	pIC50 [5, 8]	pEC50 [6, 11]	pEC50 [6, 12]	pIC50 [7, 13]	pIC50 ([7]; THP-1, differentiated THP-1 cells, footnote a: data from repeated experiments, read-out: IL-1β (IC50), data from repeated experiments)	Emax [6, 9]	Emax [6, 10]	pIC50 ([5]; THP-1, read-out: IL-6 (IC50))	pEC50 [6, 14]	pEC50 [6, 15]	Emax [6, 16]	Emax [6, 17]	pIC50 ([7]; THP-1, read-out: IL-1β (IC50))
C=C(CC(=O)NC1(c2ccc(C(F)(F)F)cc2)CCC1)C(=O)O [Example 5, 2-methylene-4-oxo-4-((1-(4-(trifluoromethyl)phenyl)cyclobutyl)amino)butanoic acid]	3 μL min^−1 10^−6 cells	450 min	<3 μL min^−1 10^−6 cells	> 460 min	< 4.25	< 4.00	< 4.00	5.43	5.25	0%	17%						
C=C(CC(=O)N[C@@H](C)c1ccc(C(F)(F)F)cn1)C(=O)OC1CCN(S(C)(=O)=O)CC1 [Example 31, 1-(methylsulfonyl)piperidin-4-yl (S)-2-methylene-4-oxo-4-((1-(5-(trifluoromethyl)pyridin-2-yl)ethyl)amino)butanoate]	34 μL min^−1 10^−6 cells	35 min	11 μL min^−1 10^−6 cells	138 min								4.88	< 4.00	4.36	27%	82%	5.62
C=C(CC(=O)N[C@@H](C)c1ccc(C(F)(F)F)cn1)C(=O)OCCO [Example 34, 2-hydroxyethyl (S)-2-methylene-4-oxo-4-((1-(5-(trifluoromethyl)pyridin-2-yl)ethyl)amino)butanoate]	24 μL min^−1 10^−6 cells	71 min	11 μL min^−1 10^−6 cells	137 min	4.59	< 4.00	5.24	4.83		16%	81%						
C=C(CC(=O)N[C@@H](C)c1ccc(C(F)(F)F)cn1)C(=O)OC1CN(S(C)(=O)=O)C1 [Example 37, 1-(methylsulfonyl)azetidin-3-yl (S)-2-methylene-4-oxo-4-((1-(5-(trifluoromethyl)pyridin-2-yl)ethyl)amino)butanoate]	104 μL min^−1 10^−6 cells	12 min	50 μL min^−1 10^−6 cells	25 min	5.14	< 4.00	4.80	5.77		11%	90%						
C/C=C(\CC(=O)N[C@@H](C)c1ccc(C(F)(F)F)cc1)C(=O)O [Example 42, (S,E)-2-(2-oxo-2-((1-(4-(trifluoromethyl)phenyl)ethyl)amino)ethyl)but-2-enoic acid]	3 μL min^−1 10^−6 cells	323 min	<3 μL min^−1 10^−6 cells	> 460 min								< 4.17	< 4.00	< 4.00	3%	8%	5.64
C=C(CC(=O)N[C@@H](C)c1ccc(C(F)(F)F)cc1)c1nnn[nH]1 [Example 57, (S)-3-(1H-tetrazol-5-yl)-N-(1-(4-(trifluoromethyl)phenyl)ethyl)but-3-enamide]	<3 μL min^−1 10^−6 cells	> 460 min	<3 μL min^−1 10^−6 cells	> 460 min	< 5.00	< 4.00	4.33	5.72		48.5%	55%						

More lines, main results first:

Clint [1]	half-life at 10 μM [2]	Clint [3]	half-life at 10 μM [4]	pIC50 [5, 8]	pEC50 [6, 11]	pEC50 [6, 12]	pIC50 [7, 13]	pIC50 ([7]; THP-1, differentiated THP-1 cells, footnote a: data from repeated experiments, read-out: IL-1β (IC50), data from repeated experiments)	Structure (SMILES)	Emax [6, 9]	Emax [6, 10]	pIC50 ([5]; THP-1, read-out: IL-6 (IC50))	pEC50 [6, 14]	pEC50 [6, 15]	Emax [6, 16]	Emax [6, 17]	pIC50 ([7]; THP-1, read-out: IL-1β (IC50))
619 μL min^−1 10^−6 cells	3.5 min	116 μL min^−1 10^−6 cells	10 min	5.14	< 4.00	4.72	5.09		C=C(CC(=O)NC1(c2ccc(C(F)(F)F)cc2)CCC1)C(=O)OC1CCN(S(C)(=O)=O)CC1 [Example 9, 1-(methylsulfonyl)piperidin-4-yl 2-methylene-4-oxo-4-((1-(4-(trifluoromethyl)phenyl)cyclobutyl)amino)butanoate]	55%	109%						
99 μL min^−1 10^−6 cells	13 min	49 μL min^−1 10^−6 cells	37 min	5.44	< 4.00	< 4.00	5.15		C=C(CC(=O)N[C@@H](C)c1ccc(C(F)(F)F)cc1)C(=O)OC1CCN(S(C)(=O)=O)CC1 [Example 22, 1-(methylsulfonyl)piperidin-4-yl (S)-2-methylene-4-oxo-4-((1-(4-(trifluoromethyl)phenyl)ethyl)amino)butanoate]	8%	3%						
199 μL min^−1 10^−6 cells	8 min	23 μL min^−1 10^−6 cells	65 min	5.40	< 4.00	5.04	5.33		C=C(CC(=O)N[C@@H](C)c1ccc(C(F)(F)F)cc1)C(=O)OC1CCN(C)CC1 [Example 24, 1-methylpiperidin-4-yl (S)-2-methylene-4-oxo-4-((1-(4-(trifluoromethyl)phenyl)ethyl)amino)butanoate]	30%	78%						
215 μL min^−1 10^−6 cells	6 min	126 μL min^−1 10^−6 cells	12 min	5.85	< 4.00	5.20	5.48		C=C(CC(=O)N[C@@H](C)c1ccc(C(F)(F)F)cc1)C(=O)OC1CS(=O)(=O)C1 [Example 27, 1,1-dioxidothietan-3-yl (S)-2-methylene-4-oxo-4-((1-(4-(trifluoromethyl)phenyl)ethyl)amino)butanoate]	10%	84%						
130 μL min^−1 10^−6 cells	13 min	39 μL min^−1 10^−6 cells	38 min	5.17	< 4.00	4.64	4.99		C=C(CC(=O)N[C@@H](C)c1ccc(C(F)(F)F)cc1)C(=O)OCCN1CCOCC1 [Example 29]	22%	86%						
